Laboratory results reported in US12060349B2, “Glucosylceramide synthase inhibitors” (Genzyme Corporation, priority 2012, dated 2024).

Key:
[1] = test system: GM3 expression on the cell surface, C32 human melanoma cells; assay: cell based phenotypic assay, cell surface GM3 by antibody mediated immunofluorescence, C32 (GM3 C32 IC50); conditions: Homo sapiens, C32 human melanoma cells; 50% inhibition of GM3 expression on the cell surface; read-out: GM3 C32 IC50
Summary of the method: (§1)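 B16 mouse and C32 human melanoma cells; cell-surface GM3 measured by antibody-mediated immunofluorescence, giving IC50.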

[2] = molecular target: T1, glucosylceramide synthase (Homo sapiens, UniProt Q16739); assay: microsomal assay measuring conversion of ceramide to glucosylceramide by HPLC (GCS IC50); type: biochemical; conditions: concentration causing 50% inhibition of glucosylceramide synthase activity
T1 construct: Microsomes were isolated from A375 human melanoma cells; endogenous in cells; host or cells: A375 human melanoma cells (microsomal fraction, 100,000 g pellet)
T1 sequence (Q16739 1-394): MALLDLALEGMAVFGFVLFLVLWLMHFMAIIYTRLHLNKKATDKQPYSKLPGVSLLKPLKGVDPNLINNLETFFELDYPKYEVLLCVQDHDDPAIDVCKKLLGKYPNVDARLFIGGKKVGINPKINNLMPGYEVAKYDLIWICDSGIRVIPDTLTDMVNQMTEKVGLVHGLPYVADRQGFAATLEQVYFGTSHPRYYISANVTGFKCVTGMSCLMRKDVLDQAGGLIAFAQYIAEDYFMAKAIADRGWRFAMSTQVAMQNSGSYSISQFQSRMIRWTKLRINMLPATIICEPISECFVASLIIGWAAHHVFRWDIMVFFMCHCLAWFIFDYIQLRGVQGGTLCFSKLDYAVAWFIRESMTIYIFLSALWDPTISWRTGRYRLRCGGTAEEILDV
Summary of the method: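 IC50 is the compound concentration halving glucosylceramide synthase activity. Activity was measured in microsomes, with HPLC quantifying glucosylceramide formed from ceramide.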

C32 human melanoma cells = assay: cell viability in the C32 cell-based assay (Viability, C32 IC50); conditions: Homo sapiens, C32, C32 cells; concentration causing 50% cell death; values greater than 10 represent a lack of cell death; read-out: Viability, C32 IC50
Summary of the method: (§2)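 Viability readouts were run alongside the GM3 cell-surface assay in the same B16 and C32 cultures. A figure above 10 indicates no cell death.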

[3] = test system: GM3 expression on the cell surface, B16 mouse melanoma cells; assay: cell based phenotypic assay, cell surface GM3 by antibody mediated immunofluorescence, B16 (GM3 B16 IC50); conditions: Mus musculus, B16 mouse melanoma cells; 50% inhibition of GM3 expression on the cell surface; read-out: GM3 B16 IC50
Summary of the method: as §1

B16 mouse melanoma cells = assay: cell viability in the B16 cell-based assay (Viability, B16 IC50); conditions: Mus musculus, B16, B16 cells; concentration causing 50% cell death; values greater than 10 represent a lack of cell death; read-out: Viability, B16 IC50
Summary of the method: as §2

| SMILES | IC50 [1] [nM] | IC50 [2] [nM] | IC50 [3] [nM] | IC50 (C32 human melanoma cells) [nM] | IC50 (B16 mouse melanoma cells) [nM] |
| --- | --- | --- | --- | --- | --- |
| CC1(NC(=O)C2CCN(c3ccnc(-c4ccc(F)cc4)n3)CC2)CCN2CCC1CC2 (stereo not drawn) [Example 51, 1-(2-(4-Fluorophenyl)pyrimidin-4-yl)-N-(4-methyl-1-azabicyclo[3.2.2]nonan-4-yl)piperidine-4-carboxamide] | 3.88 | 46.6 | 335 | 3160 | 8260 |
| CC1(NC(=O)N2CCC(c3cccc(-c4ccccc4)c3)CC2)CCN2CCC1CC2 (stereo not drawn) [Example 52, 4-([1,1′-Biphenyl]-3-yl)-N-(4-methyl-1-azabicyclo[3.2.2]nonan-4-yl)piperidine-1-carboxamide] | 337 | 503 | 1060 | 8640 | 7360 |
| CC1(NC(=O)N2CCC(c3ccc(-c4ccccc4)cc3)CC2)CCN2CCC1CC2 (stereo not drawn) [Example 53, 4-([1,1′-Biphenyl]-4-yl)-N-(4-methyl-1-azabicyclo[3.2.2]nonan-4-yl)piperidine-1-carboxamide] | 175 | 2210 | 1240 | 6290 | 6740 |
| CC1(NC(=O)C2CCN(c3ncc(F)c(-c4ccc(F)cc4)n3)CC2)CN2CCC1CC2 (stereo not drawn) [Example 54, 1-(5-Fluoro-4-(4-fluorophenyl)pyrimidin-2-yl)-N-(3-methylquinuclidin-3-yl)piperidine-4-carboxamide] | 0.0902 | 0.734 | 106 | 8040 | 5130 |
| COCCOCc1ccc(-c2nc(N3CCC(C(=O)NC4(C)CCN5CCC4CC5)CC3)ncc2F)cc1 (stereo not drawn) [Example 58, 1-(5-Fluoro-4-(4-((2-methoxyethoxy)methyl)phenyl)pyrimidin-2-yl)-N-(4-methyl-1-azabicyclo[3.2.2]nonan-4-yl)piperidine-4-carboxamide] | 0.17 | 3.39 | 40.5 | 1000 | ≥ 10000 |
| COCCOCc1ccc(-c2nc(N3CCC(C(=O)NC4(C)CN5CCC4CC5)CC3)ncc2F)cc1 (stereo not drawn) [Example 59, 1-(5-Fluoro-4-(4-((2-methoxyethoxy)methyl)phenyl)pyrimidin-2-yl)-N-(3-methylquinuclidin-3-yl)piperidine-4-carboxamide] | 0.339 | 9.18 | 152 | 464 | ≥ 10000 |
| COCc1ccc(-c2nc(N3CCC(C(=O)NC4(C)CN5CCC4CC5)CC3)ncc2F)cc1 (stereo not drawn) [Example 61, 1-(5-Fluoro-4-(4-(methoxymethyl)phenyl)pyrimidin-2-yl)-N-(3-methylquinuclidin-3-yl)piperidine-4-carboxamide] | 0.13 | 1.41 | 52.4 | 46.4 | 8540 |
| COCCCOc1ccc(-c2nc(N3CCC(C(=O)NC4(C)CCN5CCC4CC5)CC3)ncc2F)cc1 (stereo not drawn) [Example 62, 1-(5-Fluoro-4-(4-(3-methoxypropoxy)phenyl)pyrimidin-2-yl)-N-(4-methyl-1-azabicyclo[3.2.2]nonan-4-yl)piperidine-4-carboxamide] | 0.109 | 0.931 | 10.5 | 100 | 2390 |
| COCCCOc1ccc(-c2nc(N3CCC(C(=O)NC4(C)CN5CCC4CC5)CC3)ncc2F)cc1 (stereo not drawn) [Example 63, 1-(5-Fluoro-4-(4-(3-methoxypropoxy)phenyl)pyrimidin-2-yl)-N-(3-methylquinuclidin-3-yl)piperidine-4-carboxamide] | 0.0988 | 0.586 | 40.8 | 100 | 3520 |
| COCCOc1ccc(-c2cccc(N3CCC(C(=O)NC4(C)CCN5CCC4CC5)CC3)c2)cc1 (stereo not drawn) [Example 68, 1-(4′-(2-Methoxyethoxy)-[1,1′-biphenyl]-3-yl)-N-(4-methyl-1-azabicyclo[3.2.2]nonan-4-yl)piperidine-4-carboxamide] | 3.53 | 21.3 | 132 | 3160 | 7120 |
| COCc1ccc(-c2ccnc(N3CCC(C(=O)NC4(C)CCN5CCC4CC5)CC3)n2)cc1 (stereo not drawn) [Example 70, 1-(4-(4-(Methoxymethyl)phenyl)pyrimidin-2-yl)-N-(4-methyl-1-azabicyclo[3.2.2]nonan-4-yl)piperidine-4-carboxamide] | 0.0905 | 3.96 | 15.6 | 1000 | 1000 |

Further lines, with some results ahead:

| IC50 [1] [nM] | IC50 [2] [nM] | IC50 [3] [nM] | SMILES | IC50 (C32 human melanoma cells) [nM] | IC50 (B16 mouse melanoma cells) [nM] |
| --- | --- | --- | --- | --- | --- |
| 0.708 | 32.5 | 162 | CC1(NC(=O)C2CCN(c3ncnc(-c4ccc(F)cc4)n3)CC2)CCN2CCC1CC2 (stereo not drawn) [Example 50, 1-(4-(4-Fluorophenyl)-1,3,5-triazin-2-yl)-N-(4-methyl-1-azabicyclo[3.2.2]nonan-4-yl)piperidine-4-carboxamide] | 3160 | ≥ 10000 |
| 0.0479 | 0.736 | 47.5 | CC1(NC(=O)C2CCN(c3ncc(F)c(-c4ccc(F)cc4)n3)CC2)CCN2CCC1CC2 (stereo not drawn) [Example 55, 1-(5-Fluoro-4-(4-fluorophenyl)pyrimidin-2-yl)-N-(4-methyl-1-azabicyclo[3.2.2]nonan-4-yl)piperidine-4-carboxamide] | 100 | 3740 |
| 0.173 | 4.63 | 20.9 | COCCOc1ccc(-c2nc(N3CCC(C(=O)NC4(C)CCN5CCC4CC5)CC3)ncc2F)cc1 (stereo not drawn) [Example 56, 1-(5-Fluoro-4-(4-(2-methoxyethoxy)phenyl)pyrimidin-2-yl)-N-(4-methyl-1-azabicyclo[3.2.2]nonan-4-yl)piperidine-4-carboxamide] | 7420 | 6760 |
| 0.1 | 1.68 | 15.5 | COCc1ccc(-c2nc(N3CCC(C(=O)NC4(C)CCN5CCC4CC5)CC3)ncc2F)cc1 (stereo not drawn) [Example 60, 1-(5-Fluoro-4-(4-(methoxymethyl)phenyl)pyrimidin-2-yl)-N-(4-methyl-1-azabicyclo[3.2.2]nonan-4-yl)piperidine-4-carboxamide] | 46.4 | 3500 |
| 0.062 | 1.7 | 32.9 | CC1(NC(=O)C2CCN(c3nccc(-c4ccc(F)c(F)c4)n3)CC2)CCN2CCC1CC2 (stereo not drawn) [Example 64, 1-(4-(3,4-Difluorophenyl)pyrimidin-2-yl)-N-(4-methyl-1-azabicyclo[3.2.2]nonan-4-yl)piperidine-4-carboxamide] | 5530 | 3420 |
| 0.0934 | 1.31 | 56.1 | CC1(NC(=O)C2CCN(c3nccc(-c4cc(F)cc(F)c4)n3)CC2)CCN2CCC1CC2 (stereo not drawn) [Example 65, 1-(4-(3,5-Difluorophenyl)pyrimidin-2-yl)-N-(4-methyl-1-azabicyclo[3.2.2]nonan-4-yl)piperidine-4-carboxamide] | 215 | 4140 |
| 0.329 | 3.17 | 69.3 | COCCOc1ccc(-c2ccnc(N3CCC(C(=O)NC4(C)CCN5CCC4CC5)CC3)n2)cc1 (stereo not drawn) [Example 66, 1-(4-(4-(2-Methoxyethoxy)phenyl)pyrimidin-2-yl)-N-(4-methyl-1-azabicyclo[3.2.2]nonan-4-yl)piperidine-4-carboxamide] | 215 | 8200 |
| 0.114 | 1.88 | 7.24 | COCCCOc1ccc(-c2ccnc(N3CCC(C(=O)NC4(C)CCN5CCC4CC5)CC3)n2)cc1 (stereo not drawn) [Example 67, 1-(4-(4-(3-Methoxypropoxy)phenyl)pyrimidin-2-yl)-N-(4-methyl-1-azabicyclo[3.2.2]nonan-4-yl)piperidine-4-carboxamide] | 1000 | 4950 |
| 4.64 | 36.2 | 303 | COCCOCc1ccc(-c2cccc(N3CCC(C(=O)NC4(C)CCN5CCC4CC5)CC3)c2)cc1 (stereo not drawn) [Example 69, 1-(4′-((2-Methoxyethoxy)methyl)-[1,1′-biphenyl]-3-yl)-N-(4-methyl-1-azabicyclo[3.2.2]nonan-4-yl)piperidine-4-carboxamide] | 1000 | 4640 |
| 0.126 | 2.48 | 4.29 | CC1(NC(=O)C2CCN(c3nccc(-c4ccc(OCCF)cc4)n3)CC2)CCN2CCC1CC2 (stereo not drawn) [Example 71, 1-(4-(4-(2-Fluoroethoxy)phenyl)pyrimidin-2-yl)-N-(4-methyl-1-azabicyclo[3.2.2]nonan-4-yl)piperidine-4-carboxamide] | 10 | 2150 |
